Assay: in vitro release of trypan blue from alginate hydrogel disks with or without compression
Format: physicochemical
Experimental: In a first in vitro experiment, alginate hydrogels were prepared comprising 10 g PROTANAL, 4 mg trypan blue (Sigma Chemical) as a model drug molecule, and 63 mg CaSO4 (Sigma Chemical). The hydrogels were cut into disks of approximately 12.7 mm diameter and approximately 2 mm thick, and thereafter swollen overnight in the commercially available Dulbecco's Modified Eagle's Medium (DMEM). The hydrogel disks so prepared were next placed in custom-made sample holders of 13 mm diameter and 30 mm length. Porous stainless steel supports were provided on both the top and bottom of each hydrogel disk to permit release of the trypan blue drug during compression of the hydrogels.
The results of this first, in vitro experiment are shown in FIG. 1, which figure comprises an upper chart graphically depicting the mechanical stimulation cycle of compression/relaxation relative to a lower chart graphically depicting the release of the trypan blue drug from the mechanically stimulated hydrogels (line A). The control, non-compressed hydrogels are also depicted in this lower chart (line B).

With `Cc1cc(-c2ccc(/N=N/c3c(S(=O)(=O)O)cc4cc(S(=O)(=O)O)cc(N)c4c3O)c(C)c2)ccc1/N=N/c1c(S(=O)(=O)O)cc2cc(S(=O)(=O)O)cc(N)c2c1O` [trypan blue] the “effect of compression on trypan blue release” value (compressed (A) versus non-compressed (B) hydrogels) was “did not significantly alter” and the “release of the trypan blue drug from the compressed hydrogels” value (compressed hydrogels (line A), three compression/relaxation cycles, 10% maximum compressive strain, DMEM-swollen) was “increased steadily”.
